# Experiments:
# [1] = test system: S. aureus ATCC 29213; test: Time-kill experiments, aminoglycoside alone or with tomatidine (FIGS. 8-10)
# [2] = test system: S. aureus CF1A-L; test: MIC, microdilution in CAMHB 24 h; assay type: cell-based, Staphylococcus aureus; conditions: CF1A-L
# [3] = test system: S. aureus CF4B-L; test: MIC, microdilution in CAMHB 24 h; assay type: cell-based, Staphylococcus aureus; conditions: CF4B-L
# [4] = test system: S. aureus Newman; test: MIC, microdilution in CAMHB 24 h; assay type: cell-based, Staphylococcus aureus; conditions: Newman
# [5] = test system: S. aureus CF7A-L; test: MIC, microdilution in CAMHB 24 h; assay type: cell-based, Staphylococcus aureus; conditions: CF7A-L
# [6] = test system: S. aureus 8325-4; test: MIC, microdilution in CAMHB 24 h; assay type: cell-based, Staphylococcus aureus; conditions: 8325-4
# [7] = test system: S. aureus Newbould; test: MIC, microdilution in CAMHB 24 h; assay type: cell-based, Staphylococcus aureus; conditions: Newbould
# [8] = test system: S. aureus CF9A-L; test: MIC, microdilution in CAMHB 24 h; assay type: cell-based, Staphylococcus aureus; conditions: CF9A-L
# [9] = test system: S. aureus ATCC BAA-41; test: MIC, microdilution in CAMHB 24 h; assay type: cell-based, Staphylococcus aureus
# [10] = test system: S. aureus Sa220c; test: MIC, microdilution in CAMHB 24 h; assay type: cell-based, Staphylococcus aureus; conditions: Sa220c
# [11] = test system: S. aureus ATCC 43300; test: MIC, microdilution in CAMHB 24 h; assay type: cell-based, Staphylococcus aureus; conditions: ATCC 43300
# [12] = test system: S. aureus N315; test: microbe, parasite or virus in culture; assay type: cell-based, Staphylococcus aureus
# [13] = test system: S. aureus CF07-L; test: MIC, microdilution in CAMHB 24 h; assay type: cell-based, Staphylococcus aureus; conditions: CF07-L
# [14] = test system: S. aureus CF35A-L; test: MIC, microdilution in CAMHB 24 h; assay type: cell-based, Staphylococcus aureus; conditions: CF35A-L
# [15] = test system: S. aureus Mu50; test: MIC, microdilution in CAMHB 24 h; assay type: cell-based, Staphylococcus aureus
# [16] = test system: S. aureus SHY97-3906; test: MIC, microdilution in CAMHB 24 h; assay type: cell-based, Staphylococcus aureus
# [17] = test system: S. aureus CF2A-L; test: MIC, microdilution in CAMHB 24 h; assay type: cell-based; conditions: CF2A-L
# [18] = test system: S. aureus ATCC 29213; test: Checkerboard assay, aminoglycoside and tomatidine; assay type: cell-based, Staphylococcus aureus; conditions: for Aminoglycoside MIC: checkerboard
# Procedure: This checkerboard protocol (Eliopoulos and Moellering, 1996) was conducted by a microdilution method similar to that use for standard MICs determination. In 96 wells plates, antibiotics were loaded at a 4× concentration (where X is the maximal tested concentration) in well A1 and at a 2× concentration in the others wells of the column 1. Antibiotics were serially diluted 1:1 from the column 2 to column 10. […] Wells A12, B12, […] are positive untreated controls whereas wells […] are negative non-inoculated controls. […] The FIC index was calculated as follow (Eliopoulos and Moellering, 1996): FIC […]/MICB, where A and B are MICs of compounds A and B in combination and where MICA and MICB are the MICs of compound A alone and of compound B alone, respectively, and FICA and FICB are the FICs of compound A and of compound B, respectively.
# [19] = test system: S. aureus CF8E-L; test: MIC, microdilution in CAMHB 24 h; assay type: cell-based, Staphylococcus aureus; conditions: CF8E-L
# [20] = ant(4′)-Ia, 8 μg/ml of tomatidine
# [21] = ant(4′)-Ia, absence of tomatidine
# [22] = SHY-3906, 8 μg/ml of tomatidine
compound,measurement,setting,value
"C[C@H]1CC[C@]2(NC1)O[C@H]1C[C@H]3[C@@H]4CC[C@H]5C[C@@H](O)CC[C@]5(C)[C@H]4CC[C@]3(C)[C@H]1[C@@H]2C [Tomatidine, tomatidine]",emergence of resistant CFU,"[1]; combination of tomatidine (8 μg/ml) and gentamicin, FIG. 10",significantly reduced the emergence
same,number of CFU recovered,"[1]; cultures exposed to gentamicin 0.5 to 4 μg/ml for 24 h, with 8 μg/ml tomatidine, FIG. 10",significantly decrease
same,regrowth of bacteria exposed to gentamicin or tobramycin,"[1]; tomatidine at 8 μg/ml with aminoglycoside 1 μg/ml, 24 h, FIG. 9",markedly reduced the regrowth
gentamicin,Fold (−TO/+TO),[2]; 8 μg/ml of tomatidine,4-8 fold
same,MIC +TO,[2]; 8 μg/ml of tomatidine,0.12 µg/mL
same,MIC,[2]; Human (CF lungs),0.5 to 1 µg/mL
same,MIC −TO,[2]; absence of tomatidine,0.5 to 1 µg/mL
same,time-kill activity alone,"[1]; alone at ≧1×MIC (1 μg/ml), regrowth observed within 24 h, FIG. 9",bactericidal
same,time-kill activity of combination,"[1]; gentamicin 0.06 μg/ml combined with tomatidine 8, FIG. 8",strong bactericidal activity
same,Fold (−TO/+TO),[3]; 8 μg/ml of tomatidine,4-8 fold
same,MIC +TO,[3]; 8 μg/ml of tomatidine,0.06 to 0.12 µg/mL
same,MIC,[3]; Human (CF lungs),0.5 µg/mL
same,MIC −TO,[3]; absence of tomatidine,0.5 µg/mL
same,Fold (−TO/+TO),[4]; 8 μg/ml of tomatidine,8-16 fold
same,MIC +TO,[4]; 8 μg/ml of tomatidine,0.06 µg/mL
same,MIC,[4]; Human (Osteo),0.5 to 1 µg/mL
same,MIC −TO,[4]; absence of tomatidine,0.5 to 1 µg/mL
same,MIC +TO,[5]; [20],0.12 to 0.25 µg/mL
same,MIC −TO,[5]; [21],0.5 to 1 µg/mL
same,Fold (−TO/+TO),[5]; 8 μg/ml of tomatidine,2-8 fold
same,MIC,"[5]; Human (CF lungs), MRSA",0.5 to 1 µg/mL
same,Fold (−TO/+TO),[6]; 8 μg/ml of tomatidine,4 fold
same,MIC +TO,[6]; 8 μg/ml of tomatidine,0.03 to 0.06 µg/mL
same,MIC,[6]; Laboratory strain,0.12 to 0.25 µg/mL
same,MIC −TO,[6]; absence of tomatidine,0.12 to 0.25 µg/mL
same,MIC +TO,[7]; 8 μg/ml of tomatidine,0.06 µg/mL
same,MIC,[7]; Cow (mastitis),0.5 to 1 µg/mL
same,MIC −TO,[7]; absence of tomatidine,0.5 to 1 µg/mL
same,MIC +TO,[8]; [20],0.06 to 0.12 µg/mL
same,MIC −TO,[8]; [21],0.5 to 1 µg/mL
same,Fold (−TO/+TO),[8]; 8 μg/ml of tomatidine,4-8 fold
same,MIC,"[8]; Human (CF lungs), MRSA",0.5 to 1 µg/mL
same,MIC +TO,"[9]; ATCC BAA-41, ant(4′)-Ia, 8 μg/ml of tomatidine",0.12 to 0.25 µg/mL
same,MIC −TO,"[9]; ATCC BAA-41, ant(4′)-Ia, absence of tomatidine",0.5 µg/mL
same,Fold (−TO/+TO),"[9]; ATCC BAA-41, 8 μg/ml of tomatidine",2-4 fold
same,MIC,"[9]; ATCC BAA-41, Human (HA), MRSA",0.5 µg/mL
same,Fold (−TO/+TO),[10]; 8 μg/ml of tomatidine,4-8 fold
same,MIC +TO,[10]; 8 μg/ml of tomatidine,0.06 to 0.12 µg/mL
same,MIC,"[10]; Human (SSTI), MRSA",0.5 µg/mL
same,MIC −TO,[10]; absence of tomatidine,0.5 µg/mL
same,Fold (−TO/+TO),[11]; 8 μg/ml of tomatidine,4 fold
same,MIC +TO,[11]; 8 μg/ml of tomatidine,16 to 32 µg/mL
same,MIC,"[11]; Human (HA), MRSA",64-128 (R) μg/ml
same,MIC −TO,[11]; absence of tomatidine,64 to 128 µg/mL
same,MIC +TO,"[12]; N315, ant(4′)-Ia, 8 μg/ml of tomatidine",0.12 µg/mL
same,MIC −TO,"[12]; N315, ant(4′)-Ia, absence of tomatidine",1 µg/mL
same,Fold (−TO/+TO),"[12]; N315, 8 μg/ml of tomatidine",8 fold
same,MIC,"[12]; N315, Human (HA), MRSA",1 µg/mL
same,Fold (−TO/+TO),[13]; 8 μg/ml of tomatidine,4-8 fold
same,MIC +TO,[13]; 8 μg/ml of tomatidine,0.06 to 0.25 µg/mL
same,MIC,[13]; Human (CF lungs),0.5 to 1 µg/mL
same,MIC −TO,[13]; absence of tomatidine,0.5 to 1 µg/mL
same,Fold (−TO/+TO),[14]; 8 μg/ml of tomatidine,8 fold
same,MIC +TO,[14]; 8 μg/ml of tomatidine,0.06 to 0.12 µg/mL
same,MIC,"[14]; Human (CF lungs), MRSA",0.5 to 1 µg/mL
same,MIC −TO,[14]; absence of tomatidine,0.5 to 1 µg/mL
same,MIC +TO,"[15]; Mu50, aac(6′)-aph(2″), ant(4′)-Ia, 8 μg/ml of tomatidine",16 µg/mL
same,MIC −TO,"[15]; Mu50, aac(6′)-aph(2″), ant(4′)-Ia, absence of tomatidine",128 µg/mL
same,Fold (−TO/+TO),"[15]; Mu50, 8 μg/ml of tomatidine",8 fold
same,MIC,"[15]; Mu50, Human (SSTI), MRSA, VISA",128 (R) μg/ml
same,MIC,"[16]; SHY97-3906, Cow (mastitis)",0.25 µg/mL
same,Fold (−TO/+TO),[16]; [22],4-8 fold
same,MIC +TO,[16]; [22],0.03 to 0.06 µg/mL
same,MIC −TO,"[16]; SHY-3906, absence of tomatidine",0.25 µg/mL
same,Fold (−TO/+TO),[17]; 8 μg/ml of tomatidine,4-8 fold
same,MIC +TO,[17]; 8 μg/ml of tomatidine,0.12 to 0.25 µg/mL
same,MIC,[17]; Human (CF lungs),1 µg/mL
same,MIC −TO,[17]; absence of tomatidine,1 µg/mL
same,FIC index,"[18]; aminoglycoside with tomatidine, tomatidine MIC considered 32 μg/ml, values overestimated",≦0.116
same,Aminoglycoside MIC,[18]; tomatidine 0 μg/ml,0.5 to 1 µg/mL
same,Aminoglycoside MIC,[18]; tomatidine 0.06 μg/ml,0.25 µg/mL
same,Aminoglycoside MIC,[18]; tomatidine 0.12 μg/ml,0.06 to 0.25 µg/mL
same,Aminoglycoside MIC,[18]; tomatidine 0.25 μg/ml,0.06 µg/mL
same,Aminoglycoside MIC,[18]; tomatidine 0.5 μg/ml,0.06 µg/mL
same,Aminoglycoside MIC,[18]; tomatidine 1 μg/ml,0.03 to 0.06 µg/mL
same,Aminoglycoside MIC,[18]; tomatidine 2 μg/ml,0.06 to 0.12 µg/mL
same,Aminoglycoside MIC,[18]; tomatidine 4 μg/ml,0.03 to 0.12 µg/mL
same,Aminoglycoside MIC,[18]; tomatidine 8 μg/ml,0.03 to 0.06 µg/mL
same,Fold (−TO/+TO),[19]; 8 μg/ml of tomatidine,2-4 fold
same,MIC +TO,[19]; 8 μg/ml of tomatidine,0.25 to 0.5 µg/mL
same,MIC,[19]; Human (CF lungs),1 µg/mL
same,MIC −TO,[19]; absence of tomatidine,1 µg/mL
